Reference: ChEMBL document CHEMBL1133224, “New ratiometric fluorescent calcium indicators with moderately attenuated binding affinities” (Bioorg Med Chem Lett, 2000)
pKd: −log10 of the molar value.

Test: Calcium binding affinity (fluorescent calcium probe) expressed in terms of dissociation constant

| SMILES | pKd |
| --- | --- |
| O=C(O)CN(CC(=O)O)c1ccc(F)cc1OCCOc1cc(-c2nc3cc(C(F)(F)F)ccc3s2)ccc1N(CC(=O)O)CC(=O)O | 5.85 |
| O=C(O)CN(CC(=O)O)c1ccc(Cl)cc1OCCOc1cc2cc(-c3ncc(C(=O)O)o3)oc2cc1N(CC(=O)O)CC(=O)O | 6.40 |
| Cc1ccc(N(CC(=O)O)CC(=O)O)c(OCCOc2cc(-c3cc4ccc(C(=O)O)cc4[nH]3)ccc2N(CC(=O)O)CC(=O)O)c1 | 6.64 |
| Cc1ccc(N(CC(=O)O)CC(=O)O)c(OCCOc2cc3cc(-c4ncc(C(=O)O)o4)oc3cc2N(CC(=O)O)CC(=O)O)c1 | 6.85 |
| O=C(O)CN(CC(=O)O)c1ccc(F)cc1OCCOc1cc2cc(-c3ncc(C(=O)O)o3)oc2cc1N(CC(=O)O)CC(=O)O | 6.40 |
| O=C(O)CN(CC(=O)O)c1cc2oc(-c3ncc(C(=O)O)o3)cc2cc1OCCOc1c(F)cccc1N(CC(=O)O)CC(=O)O | 5.28 |
| Cc1ccc(N(CC(=O)O)CC(=O)O)c(OCCOc2cc(-c3nc4cc(C(F)(F)F)ccc4s3)ccc2N(CC(=O)O)CC(=O)O)c1 | 6.18 |
| O=C(O)CN(CC(=O)O)c1cc(F)ccc1OCCOc1cc2cc(-c3ncc(C(=O)O)o3)oc2cc1N(CC(=O)O)CC(=O)O | 6.11 |
| O=C(O)CN(CC(=O)O)c1ccc(F)cc1OCCOc1cc(-c2cc3ccc(C(=O)O)cc3[nH]2)ccc1N(CC(=O)O)CC(=O)O | 6.33 |
